Data from patent US9321757B2, “Heterocyclic compound” (Takeda Pharmaceutical Company Limited, priority 2013, dated 2016).

What was measured:
[1] = tested on: tumor necrosis factor (TNFα) production in the serum; experiment: R848 Tolerance Test in Rat; format: in vivo; conditions: Lewis rat serum 1 hr after R848 i.p., mean ± S.E.
Method: 6-Week-old male LEW/CrlCrlj (Lewis) rats (Japane Charles River Laboratories) were used as 8 rats/group. R848 (Enzo Life Sciences) was dissolved in dimethyl sulfoxide (500 mM), and the concentration of solution was adjusted to 300 μM with saline, and 1.0 mL thereof was intraperitoneally administered in the rat. The compound was orally administered 1 hr before R848 administration. 0.5% Methyl cellulose (5 mL/kg) was orally administered as a control. The blood was collected from the abdominal aorta 1 hr after R848 administration. The blood was left overnight at 4° C., and the serum was collected by centrifugation. The amount of the tumor necrosis factor (TNFα) production in the serum was measured by […] TNF-alpha Quantikine ELISA Kit (R&D Systems). Shirley-Williams test was used for a dose-dependent manner, and p≦0.05 was evaluated as a significance level.

[2] = molecular target: T1, IRAK-4 (Homo sapiens, UniProt Q9NWZ3); experiment: IRAK-4 Enzyme Inhibition Test (LANCE method); format: biochemical; conditions: compound concentration 1 μM; well without enzyme = 100% inhibition; read-out: IRAK4 enzyme inhibitory rate (%) at 1 μM
T1 construct: purchased Carna Biosciences, Inc
T1 sequence (Q9NWZ3 1-460): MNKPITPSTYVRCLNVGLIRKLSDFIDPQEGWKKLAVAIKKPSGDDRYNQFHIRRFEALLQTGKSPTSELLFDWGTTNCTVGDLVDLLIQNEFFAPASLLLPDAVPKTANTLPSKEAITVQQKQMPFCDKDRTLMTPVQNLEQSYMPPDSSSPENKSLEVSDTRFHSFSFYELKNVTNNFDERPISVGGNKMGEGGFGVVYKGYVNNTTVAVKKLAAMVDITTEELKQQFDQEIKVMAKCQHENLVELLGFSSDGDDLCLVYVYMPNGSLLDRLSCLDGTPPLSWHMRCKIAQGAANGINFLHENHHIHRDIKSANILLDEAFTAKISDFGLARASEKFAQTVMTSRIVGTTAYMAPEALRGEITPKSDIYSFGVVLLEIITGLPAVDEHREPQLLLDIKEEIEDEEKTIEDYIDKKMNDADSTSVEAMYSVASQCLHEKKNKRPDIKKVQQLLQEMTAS
Method: IRAK-4 enzyme inhibitory activities of test compounds were measured by LANCE method (PerkinElmer). First, a test compound diluted with assay buffer (50 mM HEPES (pH7.5), 10 mM MgCl2, 1 mM EGTA, 2 mM DTT, 0.01% Tween 20, 0.01% BSA) was added to 384-well plate at 2 μL each. Then, IRAK-4 (Carna Biosciences, Inc.) and a fluorescence-labeled peptide substrate (ULight-ACC peptide, PerkinElmer) solution diluted with assay buffer at 240 ng/mL and 37.5 nM, respectively were added at 2 μL each. Then, enzyme reaction was started by adding 2 μL each of ATP solution prepared with assay buffer at 1.5 mM. After the reaction at room temperature for 1 hr, Detection Buffer (PerkinElmer) prepared to be 20 mM EDTA, 1 nM europium-labeled anti-phospho ACC antibody (PerkinElmer) was added at 6 μL each. After standing at room temperature for 1 hr, fluorescence intensity (excitation wavelength 340 nm, fluorescence wavelength 665 nm, delay time 100 microseconds) was measured by a plate reader, Envision (PerkinElmer). The inhibitory activity of each compound was calculated as relative value where fluorescence intensity of a well without enzyme is considered as 100% inhibition.

[3] = tested on: NC1-induced nephritis; format: in vivo, rat
Method: 8-Week-old female WKY rats (Japan Charles River Laboratories) were used as 7 rats/group. Bovine NC1 (The non-collagenous domain of α3 chain of type IV collagen, Chondrex, inc) was dissolved in phosphate buffer to adjust the concentration to 0.3 mg/mL. The equal amount of complete Freund's adjuvant (H37 Ra, Diffco) was added thereto to give an emulsion. The emulsion (0.2 mL) was inoculated intracutaneously into the rat tail head (the 0 day). The compound was orally administered for 5 weeks (the 0 to 35th day, twice a day). 0.5% Methyl cellulose (5 mL/kg) was orally administered as a control. The urine was collected for 4 hr on the −1st day (Pre value) and the 35th day. The collected urine was centrifuged at 400 G, for 5 min at 4° C., the supernatant was kept at −80° C., and the amounts of creatinine and protein were measured. The body weight was measured on the 0th day and the 35th day. A comparison between the groups was analyzed by Dunnett test, and p≦0.05 was evaluated as a significance level.

Compound	TNFα production amount ([1]; 0.27 mg/kg orally 1 hr before R848, Control 945 ± 106) [pg/mL]	TNFα production amount ([1]; 0.91 mg/kg orally 1 hr before R848, Control 945 ± 106) [pg/mL]	TNFα production amount ([1]; 2.73 mg/kg orally 1 hr before R848, Control 945 ± 106) [pg/mL]	TNFα production amount ([1]; 9.09 mg/kg orally 1 hr before R848, p ≦ 0.05 vs. Control 945 ± 106) [pg/mL]	inhibition at 1 µM [2] [%]	Proteinuria (mg/mg Cre 4 hr), Pre (−1st day) ([3]; WKY rat, 3 mg/kg group, Pre value (−1st day, before immunisation and dosing), mean ± S.E.) [mg/mg Cre 4 hr]	Proteinuria (mg/mg Cre 4 hr), 35th day ([3]; WKY rat, 3 mg/kg orally twice a day, 0 to 35th day, mean ± S.E., p ≦ 0.05 vs. Control 31.7 ± 4.26) [mg/mg Cre 4 hr]	Body weight difference from the 0th day on the 35th day (g) ([3]; rat, in vivo, po, 3 mg/kg)	TNFα production amount ([1]; 0.3 mg/kg orally 1 hr before R848, Control 1090 ± 137) [pg/mL]	TNFα production amount ([1]; 1 mg/kg orally 1 hr before R848, Control 1090 ± 137) [pg/mL]	TNFα production amount ([1]; 3 mg/kg orally 1 hr before R848, p ≦ 0.05 vs. Control 1090 ± 137) [pg/mL]	TNFα production amount ([1]; 10 mg/kg orally 1 hr before R848, p ≦ 0.05 vs. Control 1090 ± 137) [pg/mL]
Cn1cc(NC(=O)c2coc(-c3ccnc(NCC(F)(F)F)c3)n2)c(N2CCNC2=O)n1 [Example 58, N-(1-methyl-3-(2-oxoimidazolidin-1-yl)-1H-pyrazol-4-yl)-2-(2-((2,2,2-trifluoroethyl)amino)pyridin-4-yl)-1,3-oxazole-4-carboxamide]	1070 ± 160	804 ± 116	628 ± 31.1	326 ± 41.1	99							
Cn1cc(NC(=O)c2coc(-c3ccnc(NCC(F)(F)F)c3)n2)c(N2CCN(CCO)C2=O)n1 [Example 57, N-(3-(3-(2-hydroxyethyl)-2-oxoimidazolidin-1-yl)-1-methyl-1H-pyrazol-4-yl)-2-(2-((2,2,2-trifluoroethyl)amino)pyridin-4-yl)-1,3-oxazole-4-carboxamide]					100	0.32 ± 0.05	18.1 ± 2.43	+63.7 ± 2.8 g	1349 ± 181	736 ± 76.2	306 ± 45.9	236 ± 26.8
